These are literature values, as cited in patent US4323647A, “Steric hindrance enzyme immunoassay” (University of Miami, priority 1980, dated 1982).

This data set has as its target beta-galactosidase isolated from E. coli (Escherichia coli, UniProt P00722). To be noted: potent competitive inhibitor; Lai, et al., Biophys. Res. Comm. 54: 463-468 (1973).

Chain of beta-galactosidase isolated from E. coli (P00722 2-1024 limits assumed): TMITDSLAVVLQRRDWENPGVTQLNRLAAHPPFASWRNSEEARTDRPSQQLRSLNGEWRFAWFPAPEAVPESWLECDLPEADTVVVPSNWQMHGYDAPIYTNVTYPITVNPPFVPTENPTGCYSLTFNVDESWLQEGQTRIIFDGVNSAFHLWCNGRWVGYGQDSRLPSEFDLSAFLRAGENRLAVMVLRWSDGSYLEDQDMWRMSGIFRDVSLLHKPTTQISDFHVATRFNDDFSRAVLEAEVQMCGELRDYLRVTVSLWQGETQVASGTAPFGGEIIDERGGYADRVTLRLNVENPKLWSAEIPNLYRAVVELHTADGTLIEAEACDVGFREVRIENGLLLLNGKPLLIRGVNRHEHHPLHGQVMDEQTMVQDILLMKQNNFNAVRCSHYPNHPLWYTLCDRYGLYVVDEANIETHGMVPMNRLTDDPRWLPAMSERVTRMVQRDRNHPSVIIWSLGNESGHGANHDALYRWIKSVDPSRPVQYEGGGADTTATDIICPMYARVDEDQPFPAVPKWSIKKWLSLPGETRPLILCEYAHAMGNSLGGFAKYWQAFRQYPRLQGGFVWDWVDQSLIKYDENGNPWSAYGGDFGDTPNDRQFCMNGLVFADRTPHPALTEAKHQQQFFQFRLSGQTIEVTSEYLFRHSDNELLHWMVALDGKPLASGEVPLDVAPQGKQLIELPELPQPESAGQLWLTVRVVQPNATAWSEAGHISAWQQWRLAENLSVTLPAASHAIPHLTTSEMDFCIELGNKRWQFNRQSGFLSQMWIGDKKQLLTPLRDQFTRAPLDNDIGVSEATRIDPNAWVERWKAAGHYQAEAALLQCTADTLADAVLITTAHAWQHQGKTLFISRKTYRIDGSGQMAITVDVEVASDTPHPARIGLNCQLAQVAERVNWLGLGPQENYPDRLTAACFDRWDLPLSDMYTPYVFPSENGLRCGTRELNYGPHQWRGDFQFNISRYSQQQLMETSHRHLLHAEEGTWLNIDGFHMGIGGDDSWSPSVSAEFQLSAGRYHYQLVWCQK

`N[C@@H]1O[C@H](CO)[C@H](O)[C@H](O)[C@H]1O` [beta-D-galactosylamine]: the Ki is 225 µM.
